In the RepoRT retention time repository:
Structures can show the parent of a compound that is named as a salt.

Test: RP, Restek Raptor Biphenyl, 100 × 2.1 mm, 2.7 µm, 50 °C, 0.4 mL/min, estimated dead time 0.55 min; A: water + 0.1% formic acid, pH 3; B: methanol + 0.1% formic acid, pH 3; gradient (min/%B) 0/5 1.12/5 6.41/99.5 10.01/99.5
Conditions: stereoisomer not certain

COc1cc(C(O)C(=O)O)ccc1O (racemic) [DL-4-Hydroxy-3-methoxymandelic acid]
LC retention time: 1.73 min

O=C(O)C(O)Cc1c[nH]c2ccccc12 (racemic) [DL-Indole-3-lactic acid]
LC retention time: 3.91 min

COc1cc(CC(O)C(=O)O)ccc1O (racemic) [DL-Vanillactic acid lithium salt hydrate]
LC retention time: 3.04 min

O=C(O)CCCC(O)C(=O)O (racemic) [Disodium (2RS)-2-hydroxyadipate]
LC retention time: 1.03 min

CC(C(=O)O)C(O)(CC(=O)O)C(=O)O (racemic) [Trisodium 2-methylcitrate, racemic mixture of diastereomers]
LC retention time: 1.03 min

O=C(O)c1cc(O)ccc1O [2,5-DIHYDROXYBENZOATE]
LC retention time: 2.57 min

O=C(O)c1ccc(C(=O)O)o1 [2,5-Furandicarboxylic acid]
LC retention time: 1.51 min

O=c1cccc(O)[nH]1 [2,6-DIHYDROXYPYRIDINE]
LC retention time: 3.3 min

CSCCC(O)C(=O)O (stereo not drawn) [2-HYDROXY-4-(METHYLTHIO)BUTANOATE]
LC retention time: 2.51 min

CCCCCCCCCCCCCCC(O)C(=O)O (stereo not drawn) [2-Hydroxyhexadecanoic acid]
LC retention time: 6.3 min

CC(C)CC(O)C(=O)O (stereo not drawn) [2-Hydroxyisocaproic acid]
LC retention time: 2.76 min

CCCCCCCCCCCCC(O)C(=O)O (stereo not drawn) [2-Hydroxytetradecanoic acid]
LC retention time: 6.09 min

CC(C)C(O)(CC(=O)O)C(=O)O (stereo not drawn) [2-Isopropylmalic acid]
LC retention time: 2.76 min

C=CCC(C)C(=O)O (stereo not drawn) [2-Methyl-4-pentenoic acid]
LC retention time: 3.16 min

O=C(O)CCCC(=O)C(=O)O [2-Oxoadipic acid]
LC retention time: 0.793 min

C=CC(=O)O [2-PROPENOATE]
LC retention time: 0.959 min

CC(C)(CC(=O)O)CC(=O)O [3,3-Dimethylglutaric acid]
LC retention time: 3.16 min

O=C(O)C(O)c1ccc(O)c(O)c1 (stereo not drawn) [3,4 DIHYDROXYMANDELATE]
LC retention time: 0.822 min

N[C@@H](Cc1cc(I)c(O)c(I)c1)C(=O)O [3,5-DIIODO-L-TYROSINE]
LC retention time: 3.59 min

O=C(O)CCc1ccc(O)cc1 [3-(4-Hydroxyphenyl)propionic acid]
LC retention time: 3.65 min

O=C(O)CCCCCCC(O)CC(=O)O (stereo not drawn) [3-Hydroxy Sebacic Acid]
LC retention time: 3.95 min

CC(O)(CC(=O)O)CC(=O)O [3-Hydroxy-3-methylglutaric acid]
LC retention time: 1.01 min

O=C(O)CC(O)CC(=O)O [3-Hydroxyglutaric acid]
LC retention time: 0.77 min

O=C(O)CCC(O)CC(=O)O (stereo not drawn) [3-Hydroxyhexanedioic Acid]
LC retention time: 0.954 min

O=C(O)C(O)c1cccc(O)c1 (stereo not drawn) [3-Hydroxymandelic acid]
LC retention time: 1.52 min

O=C(O)CCCCC(O)CC(=O)O (stereo not drawn) [3-Hydroxysuberic Acid]
LC retention time: 2.74 min

O=C(O)Cc1c[nH]c2ccccc12 [3-Indoleacetic acid]
LC retention time: 4.19 min

O=C(O)C=Cc1c[nH]c2ccccc12 [3-Indoleacrylic acid]
LC retention time: 4.71 min

CC(CCC(=O)O)CC(=O)O (stereo not drawn) [3-Methyladipic acid]
LC retention time: 3.25 min

CC(C)=CC(=O)NCC(=O)O [3-Methylcrotonyl Glycine]
LC retention time: 2.95 min

CC(CC(=O)O)CC(=O)O [3-Methylglutaric acid]
LC retention time: 2.43 min

N[C@@H](Cc1ccc(O)c([N+](=O)[O-])c1)C(=O)O [3-NITRO-L-TYROSINE]
LC retention time: 1.92 min

C[C@H](CCC(=O)O)[C@H]1CC[C@H]2[C@@H]3CC[C@@H]4CC(=O)CC[C@]4(C)[C@H]3CC[C@]12C [3-Oxo-5β-cholanoic Acid]
LC retention time: 6.93 min

CCCC(C(=O)O)C(O)C(=O)O (stereo not drawn) [3-Propylmalic acid]
LC retention time: 2.81 min

CC(=O)NCCCC(=O)O [4-ACETAMIDOBUTANOATE]
LC retention time: 1.42 min

O=C(O)c1ccc(O)cc1 [4-HYDROXYBENZOATE]
LC retention time: 0.822 min

O=C(O)Cc1ccc(O)cc1 [4-Hydroxyphenylacetic acid]
LC retention time: 3.02 min

O=C(O)C=Cc1cnc[nH]1 [4-Imidazoleacrylic acid]
LC retention time: 0.718 min

Cc1ncc(CO)c(C(=O)O)c1O [4-PYRIDOXATE]
LC retention time: 1.8 min

Cc1ncc2c(c1O)C(=O)OC2 [4-Pyridoxolactone]
LC retention time: 2.25 min

NCC(=O)CCC(=O)O [5-AMINOLEVULINATE]
LC retention time: 1.05 min

O=C1CCCCO1 [5-VALEROLACTONE]
LC retention time: 2.44 min

O=C(O)CCCCCC(=O)O [6-CARBOXYHEXANOATE]
LC retention time: 3.35 min

O=C(O)CCCCCCCCCO [10-HYDROXYDECANOATE]
LC retention time: 4.92 min

CCC(C)CCCCCCCCCCCCC(=O)O (stereo not drawn) [14-Methylhexadecanoic acid]
LC retention time: 6.58 min

CC(C)CCCCCCCCCCCCCC(=O)O [15-Methylpalmitic acid]
LC retention time: 6.58 min

CC(C)CCCCCCCCCCCCCCCC(=O)O [17-Methylstearic acid]
LC retention time: 6.7 min

C#CCCCCCCCCCCCCCCCC(=O)O [17-Octadecynoic acid]
LC retention time: 6.53 min

C[C@H](CCC(=O)O)[C@H]1CC[C@H]2[C@@H]3[C@H](O)C[C@@H]4C[C@H](O)CC[C@]4(C)[C@H]3CC(=O)[C@]12C [(3ALPHA,5BETA,7ALPHA)-3,7-DIHYDROXY-12-OXOCHOLAN-24-OIC ACID]
LC retention time: 6.07 min

Nc1ncnc2c1ncn2C1OC(COP(=O)(O)O)C(OP(=O)(O)O)C1O (stereo not drawn) [ADENOSINE 3',5'-DIPHOSPHATE]
LC retention time: 0.695 min

COP(=O)(NC(C)=O)SC (stereo not drawn) [Acephate]
LC retention time: 2.34 min

O=C(O)CCCCC(=O)O [Adipic acid]
LC retention time: 2.5 min

O=C(O)CCCCCCCC(O)C(O)CCCCCCO (stereo not drawn) [Aleuritic acid]
LC retention time: 4.92 min

CCCCCCCCCCCCCCCCCCCC(=O)O [Arachidic acid]
LC retention time: 6.68 min

O=C(O)CCCCCCCC(=O)O [Azelaic acid]
LC retention time: 4.48 min

O=Cc1ccccc1 [BENZALDEHYDE]
LC retention time: 2.98 min

O=C(O)CCCCC1SCC2NC(=O)NC21 (stereo not drawn) [BIOTIN]
LC retention time: 4 min

CCC(Oc1ccc(F)c(C(F)(F)F)c1)C(=O)NCc1ccccc1 (stereo not drawn) [Beflubutamid]
LC retention time: 5.9 min

CCCCCCCCCCCCCCCCCCCCCC(=O)O [Behenic acid]
LC retention time: 6.86 min

CC[n+]1cccc(S(=O)(=O)[O-])c1 [C2-APS]
LC retention time: 0.835 min

CCC[n+]1cccc(S(=O)(=O)[O-])c1 [C3-APS]
LC retention time: 1.67 min

CCCC[n+]1cccc(S(=O)(=O)[O-])c1 [C4-APS]
LC retention time: 2.67 min

CCCCC[n+]1cccc(S(=O)(=O)[O-])c1 [C5-APS]
LC retention time: 3.33 min

CCCCCC[n+]1cccc(S(=O)(=O)[O-])c1 [C6-APS]
LC retention time: 3.92 min

CCCCCCC[n+]1cccc(S(=O)(=O)[O-])c1 [C7-APS]
LC retention time: 4.41 min

CCCCCCCC[n+]1cccc(S(=O)(=O)[O-])c1 [C8-APS]
LC retention time: 4.8 min

CCCCCCCCC[n+]1cccc(S(=O)(=O)[O-])c1 [C9-APS]
LC retention time: 5.13 min

CCCCCCCCCC[n+]1cccc(S(=O)(=O)[O-])c1 [C10-APS]
LC retention time: 5.39 min

CCCCCCCCCCC[n+]1cccc(S(=O)(=O)[O-])c1 [C11-APS]
LC retention time: 5.61 min

CCCCCCCCCCCC[n+]1cccc(S(=O)(=O)[O-])c1 [C12-APS]
LC retention time: 5.79 min

CCCCCCCCCCCCC[n+]1cccc(S(=O)(=O)[O-])c1 [C13-APS]
LC retention time: 5.95 min

CCCCCCCCCCCCCC[n+]1cccc(S(=O)(=O)[O-])c1 [C14-APS]
LC retention time: 6.1 min

CCCCCCCCCCCCCCC[n+]1cccc(S(=O)(=O)[O-])c1 [C15-APS]
LC retention time: 6.23 min

CCCCCCCCCCCCCCCC[n+]1cccc(S(=O)(=O)[O-])c1 [C16-APS]
LC retention time: 6.34 min

CCCCCCCCCCCCCCCCC[n+]1cccc(S(=O)(=O)[O-])c1 [C17-APS]
LC retention time: 6.44 min

CCCCCCCCCCCCCCCCCC[n+]1cccc(S(=O)(=O)[O-])c1 [C18-APS]
LC retention time: 6.52 min

CCCCCCCCCCCCCCCCCCC[n+]1cccc(S(=O)(=O)[O-])c1 [C19-APS]
LC retention time: 6.61 min

CCCCCCCCCCCCCCCCCCCC[n+]1cccc(S(=O)(=O)[O-])c1 [C20-APS]
LC retention time: 6.67 min

CC(=O)OCC(=O)C1(O)CCC2C3CCC4=CC(=O)CCC4(C)C3C(O)CC21C (stereo not drawn) [CORTISOL 21-ACETATE]
LC retention time: 5.88 min

CC12CCC(=O)C=C1CCC1C2C(O)CC2(C)C1CCC2(O)C(=O)CO (stereo not drawn) [CORTISOL]
LC retention time: 5.49 min

Nc1nc2c(ncn2C2OC3COP(=O)(O)OC3C2O)c(=O)[nH]1 (stereo not drawn) [CYCLIC GMP]
LC retention time: 1.14 min

CC1=C(C(=O)Nc2ccccc2)SCCO1 [Carboxin]
LC retention time: 5.79 min

CNC(=O)c1cc(Cl)cc(C)c1NC(=O)c1cc(Br)nn1-c1ncccc1Cl [Chlorantraniliprole]
LC retention time: 5.84 min

CC(CCC(=O)O)C1CCC2C3C(OS(=O)(=O)O)CC4CC(O)CCC4(C)C3CC(O)C12C (stereo not drawn) [Cholic acid 7-sulfate]
LC retention time: 5.85 min

O=C(O)CC(O)(CC(=O)O)C(=O)O [Citric acid]
LC retention time: 0.743 min

CC12CCC(=O)C=C1CCC1C2C(O)CC2(C)C(C(=O)CO)CCC12 (stereo not drawn) [Corticosterone]
LC retention time: 6.21 min

O=C(O)[C@H](O)Cc1ccccc1 [D-(+)-3-Phenyllactic acid]
LC retention time: 3.79 min

Nc1ncnc2c1ncn2C1CC(O)C(COP(=O)(O)O)O1 (stereo not drawn) [DEOXYADENOSINE MONOPHOSPHATE]
LC retention time: 0.818 min

Nc1nc2c(ncn2C2CC(O)C(CO)O2)c(=O)[nH]1 (stereo not drawn) [DEOXYGUANOSINE]
LC retention time: 1.59 min

O=c1ccn(C2CC(O)C(COP(=O)(O)O)O2)c(=O)[nH]1 (stereo not drawn) [DEOXYURIDINE-MONOPHOSPHATE]
LC retention time: 0.695 min

O=c1ccn(C2CC(O)C(CO)O2)c(=O)[nH]1 (stereo not drawn) [DEOXYURIDINE]
LC retention time: 1.22 min

CC1NC(=O)NC1CCCCCC(=O)O (stereo not drawn) [DETHIOBIOTIN]
LC retention time: 4.21 min

Nc1nc2c(ncn2C2CC(O)C(COP(=O)(O)OP(=O)(O)O)O2)c(=O)[nH]1 (stereo not drawn) [DGDP]
LC retention time: 0.695 min
